The values that follow come from paper PMC5340193 (ChemMedChem, 2017).

One assay has as its target full-length Plk1 (Homo sapiens, UniProt P53350). Type of assay: binding. To be noted: for loss of potency of the Ser to Ala variants relative to 21 and 23 / more potent than the parent pThr-containing peptide 5 and its Pmab-containing congener 7: full-length Plk1 competitive ELISA. (In an ELISA, binding on a coated surface is turned into a signal by an enzyme label.)
The next assay addresses Plk1 PBD (Homo sapiens, UniProt P53350). Type of assay: binding.
For another assay, the target named is T1, Plk2 PBD (Homo sapiens, UniProt Q9NYY3).
T1 sequence (Q9NYY3 355-685 limits assumed): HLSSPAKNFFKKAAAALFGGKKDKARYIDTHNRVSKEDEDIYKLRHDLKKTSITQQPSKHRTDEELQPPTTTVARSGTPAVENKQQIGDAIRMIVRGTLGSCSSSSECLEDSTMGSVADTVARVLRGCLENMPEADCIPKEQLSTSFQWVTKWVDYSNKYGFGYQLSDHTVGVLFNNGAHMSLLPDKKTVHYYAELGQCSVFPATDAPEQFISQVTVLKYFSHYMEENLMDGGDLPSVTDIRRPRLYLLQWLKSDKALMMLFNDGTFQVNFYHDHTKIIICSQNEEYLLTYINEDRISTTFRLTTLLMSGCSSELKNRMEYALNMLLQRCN
Type of assay: binding.

The next assay addresses T2, Plk3 PBD (Homo sapiens, UniProt Q9H4B4).
T2 sequence (Q9H4B4 335-646 limits assumed): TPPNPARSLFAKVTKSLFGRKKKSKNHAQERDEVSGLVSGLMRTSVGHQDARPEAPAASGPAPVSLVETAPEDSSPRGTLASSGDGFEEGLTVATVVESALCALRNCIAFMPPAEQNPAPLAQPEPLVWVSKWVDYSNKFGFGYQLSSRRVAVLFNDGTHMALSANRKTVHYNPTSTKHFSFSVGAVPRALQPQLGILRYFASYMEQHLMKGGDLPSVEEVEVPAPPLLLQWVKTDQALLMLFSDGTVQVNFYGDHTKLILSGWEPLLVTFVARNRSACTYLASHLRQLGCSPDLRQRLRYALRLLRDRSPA
Type of assay: binding.

The test system of another assay is Plk1. As to conditions: cited from earlier work.
Where [1] appears, read: full-length Plk1, competitive ELISA, average ± SEM (n = 5).

Where two headings read alike, the source gives them in different places. Starred links: 1 amine or outer side, 2 acyl side, 3 side chain; linkers in the order of their positions; H or OH if unused. Non-standard residues stand in square brackets, D forms with d. Residues, ends and D or L forms follow the SMILES beside them. His(π-(CH2)8Ph) = N[C@@H](Cc1cncn1CCCCCCCCc1ccccc1)C(=O)O; X2 = O=C([C@@H](N[*:1])[C@@H](CCc1ccccc1)CP(=O)(O)O)[*:2]; X1 = CC(C)[C@@H](CP(=O)(O)O)[C@H](N[*:1])C(=O)[*:2]; X3 = CC[C@@H](CP(=O)(O)O)[C@H](N[*:1])C(=O)[*:2]; Abu(4-PO3H2) = N[C@@H](CCP(=O)(O)O)C(=O)O

Plk1 PBD, sequence (P53350 326-603 limits assumed): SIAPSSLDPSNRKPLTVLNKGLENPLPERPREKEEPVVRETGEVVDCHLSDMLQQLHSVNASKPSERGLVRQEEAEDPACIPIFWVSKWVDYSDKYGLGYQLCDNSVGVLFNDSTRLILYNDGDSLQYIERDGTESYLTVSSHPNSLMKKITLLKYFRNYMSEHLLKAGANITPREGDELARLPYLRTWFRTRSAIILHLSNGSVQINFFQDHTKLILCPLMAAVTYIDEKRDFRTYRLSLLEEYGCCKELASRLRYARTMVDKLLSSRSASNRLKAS
full-length Plk1, sequence (P53350 whole entry): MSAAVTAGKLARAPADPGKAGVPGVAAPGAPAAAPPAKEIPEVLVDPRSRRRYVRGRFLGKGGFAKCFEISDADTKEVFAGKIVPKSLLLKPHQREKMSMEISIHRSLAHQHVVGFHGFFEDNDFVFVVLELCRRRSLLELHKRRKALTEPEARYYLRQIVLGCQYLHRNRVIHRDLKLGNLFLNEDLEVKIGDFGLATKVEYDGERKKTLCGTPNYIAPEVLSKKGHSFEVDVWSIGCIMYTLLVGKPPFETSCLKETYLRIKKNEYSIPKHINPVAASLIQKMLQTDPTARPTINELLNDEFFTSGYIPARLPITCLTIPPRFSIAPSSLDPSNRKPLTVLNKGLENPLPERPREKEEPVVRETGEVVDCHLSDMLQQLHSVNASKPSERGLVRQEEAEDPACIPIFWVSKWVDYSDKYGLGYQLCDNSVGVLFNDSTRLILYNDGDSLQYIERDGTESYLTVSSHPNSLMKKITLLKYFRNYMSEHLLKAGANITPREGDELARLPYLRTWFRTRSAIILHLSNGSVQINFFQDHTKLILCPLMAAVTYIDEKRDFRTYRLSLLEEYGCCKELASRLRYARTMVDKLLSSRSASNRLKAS

The IC50 is the midpoint of a concentration-inhibition curve. A high value points to lower potency. The compound `CC(=O)N1CCC[C@H]1C(=O)N[C@@H](CC(C)C)C(=O)N[C@@H](Cc1cncn1CCCCCCCCc1ccccc1)C(=O)N[C@@H](C)C(=O)N[C@H](C(N)=O)[C@@H](CCc1ccccc1)CP(=O)(O)O` [compound 25] (Ac-PL[His(π-(CH2)8Ph)]A[X2]-NH2; N-terminus and C-terminus assumed) yielded an IC50 at full-length Plk1 (setting [1]) of 70000 ± 14000 nM. For the same compound, at full-length Plk1, the “loss of potency of the Ser to Ala variants relative to 21 and 23” value is on record as “approximate two orders-of-magnitude loss of potency”.
On to `CC(=O)N1CCC[C@H]1C(=O)N[C@@H](CC(C)C)C(=O)N[C@@H](Cc1cncn1CCCCCCCCc1ccccc1)C(=O)N[C@@H](CO)C(=O)N[C@H](C(N)=O)[C@@H](CCc1ccccc1)CP(=O)(O)O` [compound 23] (Ac-PL[His(π-(CH2)8Ph)]S[X2]-NH2; N-terminus and C-terminus assumed), for which the “more potent than the parent pThr-containing peptide 5 and its Pmab-containing congener 7” value at full-length Plk1 was “approximately 3 fold”. The figures for the IC50 on Plk1 PBD, against Plk2 PBD and on Plk3 PBD were 4 ± 1 nM, 490 ± 50 nM and 1200 nM, respectively.
On to `CC(=O)N1CCC[C@H]1C(=O)N[C@@H](CC(C)C)C(=O)N[C@@H](Cc1cncn1CCCCCCCCc1ccccc1)C(=O)N[C@@H](CO)C(=O)N[C@H](C(N)=O)[C@H](CP(=O)(O)O)C(C)C` [compound 21] (Ac-PL[His(π-(CH2)8Ph)]S[X1]-NH2; N-terminus and C-terminus assumed), for which the half-inhibitory concentration (IC50) on full-length Plk1 is 60 ± 20 nM; against Plk1 PBD, 7 ± 1 nM; at Plk2 PBD, 360 ± 30 nM; against Plk3 PBD it was 1100 nM. Besides, the “more potent than the parent pThr-containing peptide 5 and its Pmab-containing congener 7” value at full-length Plk1 is listed as “approximately 3 fold”.
Take `CC(=O)N1CCC[C@H]1C(=O)N[C@@H](CC(C)C)C(=O)N[C@@H](Cc1cncn1CCCCCCCCc1ccccc1)C(=O)N[C@@H](CO)C(=O)N[C@H](C(N)=O)[C@@H](C)CP(=O)(O)O` [compound 7, reference compound]: the “inhibitory potency on replacement of the pThr residue in 5 with Pmab” value with Plk1 is recorded as “complete retention of inhibitory potency”. On Plk3 PBD, this compound returned a half-maximal inhibitory concentration (IC50) of 4400 nM.
With `CC(=O)N1CCC[C@H]1C(=O)N[C@@H](CC(C)C)C(=O)N[C@@H](Cc1cncn1CCCCCCCCc1ccccc1)C(=O)N[C@@H](CO)C(=O)N[C@@H](CCP(=O)(O)O)C(N)=O` [compound 19] (Ac-PL[His(π-(CH2)8Ph)]S[Abu(4-PO3H2)]-NH2; N-terminus and C-terminus assumed), the IC50 is 1200 ± 300 nM against full-length Plk1, 11 ± 1 nM at Plk1 PBD, 5400 nM against Plk2 PBD and 8800 nM against Plk3 PBD.
The compound `CC[C@@H](CP(=O)(O)O)[C@H](NC(=O)[C@H](CO)NC(=O)[C@H](Cc1cncn1CCCCCCCCc1ccccc1)NC(=O)[C@H](CC(C)C)NC(=O)[C@@H]1CCCN1C(C)=O)C(N)=O` [compound 20] (Ac-PL[His(π-(CH2)8Ph)]S[X3]-NH2; N-terminus and C-terminus assumed) gave an IC50 on full-length Plk1 of 200 ± 60 nM.
Regarding `CC(=O)N1CCC[C@H]1C(=O)N[C@@H](CC(C)C)C(=O)N[C@@H](Cc1cncn1CCCCCCCCc1ccccc1)C(=O)N[C@@H](C)C(=O)N[C@H](C(N)=O)[C@H](CP(=O)(O)O)C(C)C` [compound 24] (Ac-PL[His(π-(CH2)8Ph)]A[X1]-NH2; N-terminus and C-terminus assumed), on full-length Plk1 (setting [1]), the concentration for half-maximal inhibition (IC50) turned out to be 11000 ± 3000 nM. In addition, the “loss of potency of the Ser to Ala variants relative to 21 and 23” value at full-length Plk1 is listed as “approximate two orders-of-magnitude loss of potency”.
Consider `CC(=O)N1CCC[C@H]1C(=O)N[C@@H](CC(C)C)C(=O)N[C@@H](Cc1cncn1CCCCCCCCc1ccccc1)C(=O)N[C@@H](CO)C(=O)N[C@H](C(N)=O)[C@@H](C)OP(=O)(O)O` [compound 5], for which the “IC50 values in competitive ELISA assays against Plk1” value with Plk1 is “low-nanomolar”.
